# Experimental data from PubChem BioAssay AID1963863 (Molecular Pharmacology Branch, DTP, NCI, 2024).
# Test system: 931267-113-T-J1-PDC KRAS spheroid with HUVEC/MSC, viability
# Test: Anticancer human tumor 931267-113-T-J1-PDC patient-derived colon adenocarcinoma cell line growth inhibition [KRAS2]
# Conditions: for IC50: curve of first compound; for viability, T/C: stronger effect = lower value
# Summary of the method: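 Combination screen of spheroid viability in tumor-cell co-cultures with endothelial (HUVEC) and mesenchymal stem cell stroma. Each agent was tested in half-log dilutions, topping at clinical Cmax or at 10 microM without a known Cmax.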
# [1] = second compound 0.1 µM, first compound 0.0316 µM
# [2] = second compound 0.1 µM, first compound 0.1 µM
# [3] = second compound 0.1 µM, first compound 0.316 µM
# [4] = second compound 0.1 µM, first compound 1 µM
# [5] = second compound 0.1 µM, first compound 3.16 µM
# [6] = second compound 0.1 µM, first compound 10 µM
# [7] = second compound 0.316 µM, first compound 0.0316 µM
# [8] = second compound 0.316 µM, first compound 0.1 µM
# [9] = second compound 0.316 µM, first compound 0.316 µM
# [10] = second compound 0.316 µM, first compound 1 µM
# [11] = second compound 0.316 µM, first compound 3.16 µM
# [12] = second compound 0.316 µM, first compound 10 µM
# [13] = second compound 1 µM, first compound 0.0316 µM
# [14] = second compound 1 µM, first compound 0.1 µM
# [15] = second compound 1 µM, first compound 0.316 µM
# [16] = second compound 1 µM, first compound 1 µM
# [17] = second compound 1 µM, first compound 3.16 µM
# [18] = second compound 1 µM, first compound 10 µM
# [19] = second compound 3.16 µM, first compound 0.0316 µM
# [20] = second compound 3.16 µM, first compound 0.1 µM
# [21] = second compound 3.16 µM, first compound 0.316 µM
# [22] = second compound 3.16 µM, first compound 1 µM
# [23] = second compound 3.16 µM, first compound 3.16 µM
# [24] = second compound 3.16 µM, first compound 10 µM
# [25] = second compound 10 µM, first compound 0.0316 µM
# [26] = second compound 10 µM, first compound 0.1 µM
# [27] = second compound 10 µM, first compound 0.316 µM
# [28] = second compound 10 µM, first compound 1 µM
# [29] = second compound 10 µM, first compound 3.16 µM
# [30] = second compound 10 µM, first compound 10 µM
# 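Further: compound exposure lasted 7 days before the readout.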
# 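Wherever viability, T/C is given: 100% = DMSO vehicle control viability.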
SMILES,IC50 (second compound 0.1 µM) [µM],IC50 (second compound 0.316 µM) [µM],IC50 (second compound 1 µM) [µM],IC50 (second compound 3.16 µM) [µM],IC50 (second compound 10 µM) [µM],"viability, T/C [1] [%]","viability, T/C [2] [%]","viability, T/C [3] [%]","viability, T/C [4] [%]","viability, T/C [5] [%]","viability, T/C [6] [%]","viability, T/C [7] [%]","viability, T/C [8] [%]","viability, T/C [9] [%]","viability, T/C [10] [%]","viability, T/C [11] [%]","viability, T/C [12] [%]","viability, T/C [13] [%]","viability, T/C [14] [%]","viability, T/C [15] [%]",also measured
COc1cc(Nc2ncc3c(n2)-c2ccc(Cl)cc2C(c2c(F)cccc2OC)=NC3)ccc1C(=O)O + COc1cc2nc(C)nc(NC(C)c3cc(N)cc(C(F)(F)F)c3)c2cc1OC1CCOC1,> 10,> 10,> 10,> 10,0.0539,102,85.6,80.7,79.5,87.8,57,86.5,93.5,75.3,72.4,57.9,54.3,85.6,79.8,86.3,"viability, T/C [16]: 78.7%; viability, T/C [17]: 66.5%; viability, T/C [18]: 58.9%; viability, T/C [19]: 90%; viability, T/C [20]: 91%; viability, T/C [21]: 82.9%; viability, T/C [22]: 83.1%; viability, T/C [23]: 79%; viability, T/C [24]: 49.6%; viability, T/C [25]: 75.5%; viability, T/C [26]: 7.27%; viability, T/C [27]: 13.8%; viability, T/C [28]: 12.1%; viability, T/C [29]: 64.3%; viability, T/C [30]: 4.17%"
COc1cc2nccc(Oc3ccc(NC(=O)C4(C(=O)Nc5ccc(F)cc5)CC4)cc3)c2cc1OC + COc1cc2nc(C)nc(NC(C)c3cc(N)cc(C(F)(F)F)c3)c2cc1OC1CCOC1,7.32,4.89,2.84,0.747,< 0.0316,105,112,98.2,93,63.8,44.8,111,102,83.1,90.9,51.1,37.2,94.6,107,90.6,"viability, T/C [16]: 91.5%; viability, T/C [17]: 45.6%; viability, T/C [18]: 28.5%; viability, T/C [19]: 74%; viability, T/C [20]: 87%; viability, T/C [21]: 74.7%; viability, T/C [22]: 41.4%; viability, T/C [23]: 4.72%; viability, T/C [24]: 0.2%; viability, T/C [25]: 1.73%; viability, T/C [26]: 0.3%; viability, T/C [27]: 0.4%; viability, T/C [28]: 1.03%; viability, T/C [29]: 0.15%; viability, T/C [30]: 0.23%"
O=C(c1cc(Cc2n[nH]c(=O)c3ccccc23)ccc1F)N1CCN(C(=O)C2CC2)CC1 + COc1cc2nc(C)nc(NC(C)c3cc(N)cc(C(F)(F)F)c3)c2cc1OC1CCOC1,> 10,> 10,> 10,> 10,> 10,78.7,81.4,85.7,87.7,94.6,113,85.1,99.7,88.2,70.9,85.6,73,89.6,92.1,99.1,"viability, T/C [16]: 112%; viability, T/C [17]: 97.5%; viability, T/C [18]: 84.1%; viability, T/C [19]: 107%; viability, T/C [20]: 87.5%; viability, T/C [21]: 95.5%; viability, T/C [22]: 94.4%; viability, T/C [23]: 106%; viability, T/C [24]: 105%; viability, T/C [25]: 101%; viability, T/C [26]: 112%; viability, T/C [27]: 94.7%; viability, T/C [28]: 98.3%; viability, T/C [29]: 90.3%; viability, T/C [30]: 97.3%"
